Data as given in patent US8394848B2, “Compounds that modulate intracellular calcium” (Calcimedica, Inc., priority 2008, dated 2013).

What follows are compounds tested on JR251 or RBL cells (assay: Store-operated calcium entry, either JR251 or RBL cells, or both).
Format: cell-based
Method in brief: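 FLIPR calcium-entry readout in fluo-4-loaded cells held in Ca2+-free HBSS before calcium add-back. For RBL-2H3, store depletion used thapsigargin for 25 min after a 5 min compound pre-incubation, and IC50 was based on the 7 s Upslope. For Orai1/STIM1 stable cells, compound was pre-incubated 30 min and IC50 was based on Peak-Basal.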

Row | SMILES | IC50 [µM]
1 | N#Cc1cc(-c2csc(NC(=O)c3nc4ccccc4o3)c2C(=O)O)ccc1Cl [2-(benzo[d]oxazole-2-carboxamido)-4-(4-chloro-3-cyanophenyl)thiophene-3-carboxylic acid] | < 10
2 | O=C(CCc1ccccc1F)Nc1scc(-c2ccc(Br)cc2)c1C(=O)O [4-(4-bromophenyl)-2-(3-(2-fluorophenyl)propanamido)thiophene-3-carboxylic acid] | < 10
3 | O=C(CC(c1ccccc1)c1ccccc1)Nc1scc(-c2ccc(Br)cc2)c1C(=O)O [4-(4-bromophenyl)-2-(3,3-diphenylpropanamido)thiophene-3-carboxylic acid] | < 10
4 | Cc1ccsc1C(=O)Nc1scc(-c2ccc(C(F)(F)F)cc2)c1C(=O)O [2-(3-methylthiophene-2-carboxamido)-4-(4-(trifluoromethyl)phenyl)thiophene-3-carboxylic acid] | < 10
5 | O=C(CCCCc1ccccc1)Nc1scc(-c2ccc(Cl)cc2)c1C(=O)O [4-(4-chlorophenyl)-2-(5-phenylpentanamido)thiophene-3-carboxylic acid] | < 10
6 | O=C(Nc1scc(-c2ccc(Cl)c(F)c2)c1C(=O)O)c1ccc2snnc2c1 [2-(benzo[d][1,2,3]thiadiazole-5-carboxamido)-4-(4-chloro-3-fluorophenyl)thiophene-3-carboxylic acid] | < 10
7 | O=C(Nc1scc(-c2cc(F)c(F)c(F)c2)c1C(=O)O)c1cc2ccccc2o1 [2-(benzofuran-2-carboxamido)-4-(3,4,5-trifluorophenyl)thiophene-3-carboxylic acid] | < 10
8 | Cc1c(F)ccc(-c2csc(NC(=O)c3cc4ccccc4o3)c2C(=O)O)c1C [2-(benzofuran-2-carboxamido)-4-(4-fluoro-2,3-dimethylphenyl)thiophene-3-carboxylic acid] | < 10
9 | O=C(Nc1scc(-c2ccc(Br)cc2)c1C(=O)O)/C(F)=C/c1ccccc1 [(Z)-4-(4-bromophenyl)-2-(2-fluoro-3-phenylacryl amido)thiophene-3-carboxylic acid] | < 10
10 | O=C(O)c1c(-c2ccc(Br)cc2)csc1NC(=O)C(F)Cc1c(F)cccc1Cl (stereo not shown) [4-(4-bromophenyl)-2-(3-(2-chloro-6-fluorophenyl)-2-fluoropropanamido)thiophene-3-carboxylic acid] | < 10
11 | O=C(Nc1scc(-c2ccc3occc3c2)c1C(=O)O)c1cc2ccccc2o1 [2-(benzofuran-2-carboxamido)-4-(benzofuran-5-yl)thiophene-3-carboxylic acid] | < 10
12 | O=C(Nc1scc(-c2ccc(Cl)cc2)c1C(=O)O)c1nc2c(F)cccc2s1 [4-(4-chlorophenyl)-2-(4-fluorobenzo[d]thiazole-2-carboxamido)thiophene-3-carboxylic acid] | < 10
13 | Cc1ccc(-c2csc(NC(=O)c3cc4c(F)cccc4o3)c2C(=O)O)c(F)c1F [4-(2,3-difluoro-4-methylphenyl)-2-(4-fluorobenzofuran-2-carboxamido)thiophene-3-carboxylic acid] | < 10
14 | O=C(Nc1scc(-c2ccc(Cl)cc2)c1C(=O)O)c1nc2cccc(F)c2s1 [4-(4-chlorophenyl)-2-(7-fluorobenzo[d]thiazole-2-carboxamido)thiophene-3-carboxylic acid] | < 10
15 | Cc1nn(C)c2sc(C(=O)Nc3scc(-c4ccc(Cl)cc4)c3C(=O)O)cc12 [4-(4-chlorophenyl)-2-(1,3-dimethyl-1H-thieno[2,3-c]pyrazole-5-carboxamido)thiophene-3-carboxylic acid] | < 10
16 | O=C(Nc1scc(/C=C/c2ccc(Cl)cc2)c1C(=O)O)c1cc2ccccc2o1 [(E)-2-(benzofuran-2-carboxamido)-4-(4-chlorostyryl)thiophene-3-carboxylic acid] | < 10
17 | O=C(CCc1cccs1)Nc1scc(-c2ccc(Br)cc2)c1C(=O)O [4-(4-bromophenyl)-2-(3-(thiophen-2-yl)propanamido)thiophene-3-carboxylic acid] | < 10
18 | Cc1ccc(-c2csc(NC(=O)c3nc4ccccc4o3)c2C(=O)O)cc1CO [2-(benzo[d]oxazole-2-carboxamido)-4-(3-(hydroxymethyl)-4-methylphenyl)thiophene-3-carboxylic acid] | < 10
19 | Cc1ccc(-c2csc(NC(=O)c3sccc3C)c2C(=O)O)cc1 [2-(3-methylthiophene-2-carboxamido)-4-p-tolylthiophene-3-carboxylic acid] | < 10
20 | O=C(Nc1scc(-c2cc3cccc(-c4cc[nH]n4)c3o2)c1C(=O)O)c1cc2ccccc2o1 [4-(7-(1H-pyrazol-3-yl)benzofuran-2-yl)-2-(benzofuran-2-carboxamido)thiophene-3-carboxylic acid] | < 10
21 | CC(C)C(C(=O)Nc1scc(-c2ccc(Cl)c(Cl)c2)c1C(=O)O)c1ccc(Cl)cc1 (stereo not shown) [2-(2-(4-chlorophenyl)-3-methylbutanamido)-4-(3,4-dichlorophenyl)thiophene-3-carboxylic acid] | < 10
22 | COc1cccc2cc(-c3csc(NC(=O)c4cc5ccccc5o4)c3C(=O)O)oc12 [2-(benzofuran-2-carboxamido)-4-(7-methoxybenzofuran-2-yl)thiophene-3-carboxylic acid] | < 10

Row | SMILES | IC50 [µM]
23 | O=C(Nc1scc(-c2ccc(Cl)c(F)c2)c1C(=O)O)c1nc2ccccc2s1 [2-(benzo[d]thiazole-2-carboxamido)-4-(4-chloro-3-fluorophenyl)thiophene-3-carboxylic acid] | < 10
24 | O=C(CCc1c(Cl)cccc1Cl)Nc1scc(-c2ccc(Cl)cc2)c1C(=O)O [4-(4-chlorophenyl)-2-(3-(2,6-dichlorophenyl)propanamido)thiophene-3-carboxylic acid] | < 10
25 | Cn1nc(C(=O)Nc2scc(-c3ccc(Cl)cc3)c2C(=O)O)cc1-c1ccco1 [4-(4-chlorophenyl)-2-(5-(furan-2-yl)-1-methyl-1H-pyrazole-3-carboxamido)thiophene-3-carboxylic acid] | < 10
26 | O=C(O)c1c(-c2ccc(Cl)cc2)csc1NC(=O)[C@H]1CCc2ccccc2C1 [(S)-4-(4-chlorophenyl)-2-(1,2,3,4-tetrahydronaphthalene-2-carboxamido)thiophene-3-carboxylic acid] | < 10
27 | N#Cc1ccc(-c2csc(NC(=O)c3cc4sccc4s3)c2C(=O)O)cc1 [4-(4-cyanophenyl)-2-(thieno[3,2-b]thiophene-2-carboxamido)thiophene-3-carboxylic acid] | < 10
28 | N#Cc1cccc2cc(-c3csc(NC(=O)c4cc5ccccc5o4)c3C(=O)O)oc12 [2-(benzofuran-2-carboxamido)-4-(7-cyanobenzofuran-2-yl)thiophene-3-carboxylic acid] | < 10
29 | O=C(CCc1ccccc1)Nc1scc(-c2ccc(Cl)c(Cl)c2)c1C(=O)O [4-(3,4-dichlorophenyl)-2-(3-phenylpropanamido)thiophene-3-carboxylic acid] | < 10
30 | Cc1ccc(-c2csc(NC(=O)c3scc(S(C)(=O)=O)c3Cl)c2C(=O)O)cc1 [2-(3-chloro-4-(methylsulfonyl)thiophene-2-carboxamido)-4-p-tolylthiophene-3-carboxylic acid] | < 10
31 | O=C(O)c1c(-c2ccc(Br)cc2)csc1NC(=O)C(F)Cc1ccccc1Cl (stereo not shown) [4-(4-bromophenyl)-2-(3-(2-chlorophenyl)-2-fluoropropanamido)thiophene-3-carboxylic acid] | < 10
32 | COc1ccc2oc(-c3csc(NC(=O)c4cc5ccccc5o4)c3C(=O)O)cc2c1 [2-(benzofuran-2-carboxamido)-4-(5-methoxybenzofuran-2-yl)thiophene-3-carboxylic acid] | < 10
33 | O=C(Nc1scc(-c2ccc(Cl)cc2)c1C(=O)O)c1nc2ccc(F)cc2o1 [4-(4-chlorophenyl)-2-(6-fluorobenzo[d]oxazole-2-carboxamido)thiophene-3-carboxylic acid] | < 10
34 | Cc1ccc(-c2csc(NC(=O)c3ccc4ccccc4n3)c2C(=O)O)cc1 [2-(quinoline-2-carboxamido)-4-p-tolylthiophene-3-carboxylic acid] | < 10
35 | O=C(O)c1c(-c2ccc(Cl)cc2Cl)csc1NC(=O)C1CC1 [2-(cyclopropanecarboxamido)-4-(2,4-dichlorophenyl)thiophene-3-carboxylic acid] | < 10
36 | O=C(O)c1c(-c2ccc(Br)cc2)csc1NC(=O)C(F)Cc1c(Cl)cccc1Cl (stereo not shown) [4-(4-bromophenyl)-2-(3-(2,6-dichlorophenyl)-2-fluoropropanamido)thiophene-3-carboxylic acid] | < 10
37 | O=C(Nc1scc(-c2ccc(Cl)cc2)c1C(=O)O)c1c[nH]nc1-c1ccccc1 [4-(4-chlorophenyl)-2-(3-phenyl-1H-pyrazole-4-carboxamido)thiophene-3-carboxylic acid] | < 10
38 | O=C(O)c1c(-c2ccc(Br)cc2)csc1NC(=O)C1CCc2ccccc2C1 (stereo not shown) [4-(4-bromophenyl)-2-(1,2,3,4-tetrahydronaphthalene-2-carboxamido)thiophene-3-carboxylic acid] | < 10
39 | COc1cc(F)c(-c2csc(NC(=O)c3cc4ccccc4o3)c2C(=O)O)c(F)c1 [2-(benzofuran-2-carboxamido)-4-(2,6-difluoro-4-methoxyphenyl)thiophene-3-carboxylic acid] | < 10
40 | O=C(Nc1scc(-c2ccc(Cl)cc2)c1C(=O)O)/C(F)=C/c1ccccc1 [(Z)-4-(4-chlorophenyl)-2-(2-fluoro-3-phenylacryl amido)thiophene-3-carboxylic acid] | < 10
41 | Cc1ccc(-c2csc(NC(=O)c3cc4c(C)nn(C)c4s3)c2C(=O)O)cc1 [2-(1,3-dimethyl-1H-thieno[2,3-c]pyrazole-5-carboxamido)-4-p-tolylthiophene-3-carboxylic acid] | < 10
42 | O=C(Cc1ccccc1)Nc1scc(-c2ccc(Cl)cc2)c1C(=O)O [4-(4-chlorophenyl)-2-(2-phenylacetamido)thiophene-3-carboxylic acid] | < 10
43 | O=C(Nc1scc(-c2cc(F)c(Cl)cc2F)c1C(=O)O)c1cc2ccccc2o1 [2-(benzofuran-2-carboxamido)-4-(4-chloro-2,5-difluorophenyl)thiophene-3-carboxylic acid] | < 10
